Results as given in patent publication US7517998B2, “Non nucleoside reverse transcriptase inhibitors” (priority 2004, dated 2009).

Target: T1, K103NNY181C mutant reverse transcriptase (Human immunodeficiency virus type 1 group M subtype B, UniProt P04585, K690N/Y768C)
T1 construct: mutations that occur in the reverse transcriptase segment of the pol gene
Test: Reverse transcriptase enzymatic assay (PicoGreen), K103N/Y181C mutant RT
Format: biochemical, HIV-1
Settings: enzymatic assay of Example 24
Protocol: The enzymatic assay employed is described as follows: The reverse transcriptase (RT) enzyme assay has been adapted to a 96-well microtiter plate format and uses PicoGreen™ as a fluorescent intercalator. More explicitly, the HIV-1 RT enzyme was thawed and appropriately diluted into Tris/HCl 50 mM pH 7.8 containing NaCl 60 mM, MgCl2.6H2O 2 mM, DTT 6 mM, GSH 2 mM and 0.02% w/v Chaps to give ≈10 nM enzyme. To 10 μL of this enzyme solution was added 10 μL of inhibitor solution (40 μM to 2.032 nM inhibitor in the same assay buffer as above containing 4% v/v DMSO). The plate was pre-incubated for 15 minutes at room temperature before proceeding to the next step. In this pre-incubation step, the highest and lowest inhibitor concentrations were 20 μM and 1.016 nM respectively and the concentration of DMSO was 2% v/v. Then the enzymatic reaction was initiated by addition of 20 μL of substrate solution. The final reaction mixture contained Tris/HCl 50 mM pH 7.8, NaCl 60 mM, MgCl2.6H2O 2 mM, DTT 6 mM, GSH 2 mM, CHAPS 0.02% w/v, DMSO 1% v/v, poly rC 45 nM, dG15 4.5 nM, dGTP 3.6 μM, and 2.5 nM enzyme. In this incubation step, the highest and lowest inhibitor concentrations were 10 μM and 0.508 nM respectively. After addition of the substrate cocktail, the plate was covered with a plastic seal and incubated for 50 minutes at 37° C. in a dry incubator. The reaction was then quenched by addition of 5 μL of EDTA 0.5 M. The plate was shaken for 30 seconds at medium speed and incubated for 5 minutes at room temperature. Then 160 μL of PicoGreen™ 1:400 dilution from commercial stock (diluted in Tris 20 mM pH 7.5 with EDTA 1 mM) was added and the plate was shaken for 30 seconds and incubated for 10 minutes at room temperature. The plate was then analyzed using a POLARstar Galaxy fluorometer (BMG Labtechnologies) with λex and λem of 485 nm and 520 nm respectively. Each well was read for 1.25 second. Each row contained at its extremities a blank and a control well.

[1] = IC50 mut, mutant reverse transcriptase
[2] = IC50 mut, K103N/Y181C mutant reverse transcriptase
[3] = IC50 mut (nM), mutant (K103N/Y181C) reverse transcriptase

## CC(C)(C#Cc1ccc(NC(=O)CSc2nnc(C3CC3)n2-c2ccc(C3CC3)cc2Cl)c(Cl)c1)C(=O)O [Compound 1019]
[1]
  IC50: 525 nM

## CC(C)(C#Cc1ccc(NC(=O)CSc2nnnn2-c2ccc(C(C)(C)C)cc2Cl)c(Cl)c1)OCC(=O)Nc1ccccc1 [Compound 4044]
[2]
  IC50: 296 nM

## CC(C)(C#Cc1ccc(NC(=O)CSc2nnnn2-c2ccc(C(C)(C)C)cc2Cl)c(Cl)c1)CO [Compound 4016]
[2]
  IC50: 35 nM

## O=C(O)Cc1ccc(-c2ccc(NC(=O)CSc3nnnn3-c3ccc(C4CC4)cc3Cl)c(Br)c2)cc1 [Compound 2048]
[1]
  IC50: 13 nM

## CNC(=O)NC(C)(C)C#Cc1ccc(NC(=O)CSc2nnnn2-c2ccc(C3CC3)cc2Cl)c(Cl)c1 [Compound 4071]
[2]
  IC50: 8.75 nM

## CC(C)(C)c1ccc(-n2nnnc2SCC(=O)Nc2ccc(C#Cc3ccccc3)cc2Cl)c(Cl)c1 [Compound 4002]
[2]
  IC50: 268 nM

## CC(C)(C)c1ccc(-n2nnnc2SCC(=O)Nc2ccc(C(=O)NC(CO)C(=O)O)cc2Cl)c(Cl)c1 (stereo not drawn) [Compound 6018]
[1]
  IC50: 28 nM

## CC(C)(C)c1ccc(-n2nnnc2SCC(=O)Nc2ccc(NC(=O)Cc3ccsc3)cc2Cl)c(Cl)c1 [Compound 7026]
[3]
  IC50: 88 nM

## CC(C)(C)c1ccc(-n2nnnc2SCC(=O)Nc2ccc(-c3ncc[nH]3)cc2Cl)c(Cl)c1 [Compound 3029]
[1]
  IC50: 76 nM

## O=C(CSc1nnnn1-c1ccc(C2CC2)cc1Cl)Nc1ccc(OCC(=O)N2CCC(C(=O)O)CC2)cc1Cl [Compound 5032]
[1]
  IC50: 51.5 nM

## CC(C)(C#Cc1ccc(NC(=O)CSc2nnnn2-c2ccc(C3CC3)cc2Cl)c(Cl)c1)NCc1ccccc1O [Compound 4130]
[2]
  IC50: 43 nM

## CC(C)(C)c1ccc(-n2nnnc2SCC(=O)Nc2ccc(NC(=O)Cc3ccncc3)cc2Cl)c(Cl)c1 [Compound 7030]
[3]
  IC50: 38 nM

## O=C(CSc1nnnn1-c1ccc(C2CC2)cc1Cl)Nc1ccc(-c2ccc(OCCN3CCCCC3)c(Cl)c2)cc1Cl [Compound 3038]
[1]
  IC50: 167 nM

## O=C(CSc1nnnn1-c1ccc(C2CC2)cc1Cl)Nc1ccc(C#CC2(CN3CCCC3)CC2)cc1Cl [Compound 4092]
[2]
  IC50: 61.5 nM

## CC(C)(C)c1ccc(-n2nnnc2SCC(=O)Nc2ccc(OCC(=O)Nc3cccc(O)c3)cc2Cl)c(Cl)c1 [Compound 5011]
[1]
  IC50: 69 nM

## CC(C)(C#Cc1ccc(NC(=O)CSc2nnnn2-c2ccc(C3CC3)cc2Cl)c(Cl)c1)OCCN1CCCCC1 [Compound 4103]
[2]
  IC50: 218 nM

## COC(=O)CN(C)CCOc1ccc(-c2ccc(NC(=O)CSc3nnnn3-c3ccc(C(C)(C)C)cc3Cl)c(Cl)c2)cc1 [Compound 2043]
[1]
  IC50: 32 nM

## CC(C)(C#Cc1ccc(NC(=O)CSc2nnnn2-c2ccc(C3CC3)cc2Cl)c(Cl)c1)NC(=O)CC(=O)O [Compound 4232]
[2]
  IC50: 10 nM

## Cc1ccc(-c2cn[nH]c2OCC(=O)Nc2ccc(-c3ccc(CC(=O)O)cc3)cc2Cl)c(Cl)c1 [Compound 1010]
[1]
  IC50: 156 nM

## Cn1cc(NC(=O)COc2ccc(NC(=O)CSc3nnnn3-c3ccc(C(C)(C)C)cc3Cl)c(Cl)c2)cc1C(=O)O [Compound 5029]
[1]
  IC50: 34 nM

## O=C(O)Cc1ccc(-c2ccc(NC(=O)CSc3nnnn3-c3ccc(C(F)(F)F)cc3Cl)c(Cl)c2)cc1 [Compound 2023]
[1]
  IC50: 169 nM

## CC(C)(C)c1ccc(-n2nnnc2SCC(=O)Nc2ccc(NC(=O)Cc3cccc([N+](=O)[O-])c3)cc2Cl)c(Cl)c1 [Compound 7017]
[3]
  IC50: 170 nM

## Cc1ccc(-c2c(OCC(=O)Nc3ccc(C#CC(C)(C)O)cc3Cl)n[nH]c2C)c(Cl)c1 [Compound 1016]
[1]
  IC50: 48 nM

## CC(C)(C)c1ccc(-n2nnnc2SCC(=O)Nc2ccc(OCC(=O)Nc3ccccc3C(=O)O)cc2Cl)c(Cl)c1 [Compound 5010]
[1]
  IC50: 402 nM

## CC(C)(C#Cc1ccc(NC(=O)CSc2nnnn2-c2ccc(C(C)(C)C)cc2Cl)c(Cl)c1)OCC(=O)NCc1ccco1 [Compound 4037]
[2]
  IC50: 66 nM

## CC(C)(C)c1ccc(-n2nnnc2SCC(=O)Nc2ccc(NC(=O)c3ccccc3)cc2Cl)c(Cl)c1 [Compound 7005]
[3]
  IC50: 106 nM

## O=C(CSc1nnnn1-c1ccc(C2CC2)cc1Cl)Nc1ccc(-c2ccc(OCCN3CCS(=O)(=O)CC3)cc2)c(F)c1Cl [Compound 2059]
[1]
  IC50: 13 nM

## CC(C)(C)c1ccc(-n2nnnc2SCC(=O)Nc2ccc(NC(=O)C3CCCC3)cc2Cl)c(Cl)c1 [Compound 7021]
[3]
  IC50: 262 nM

## CC(C)(C#Cc1ccc(NC(=O)CSc2nnnn2-c2cc(Br)ccc2Cl)c(Cl)c1)C(=O)O [Compound 4218]
[2]
  IC50: 31.5 nM

## CC(C)(C#Cc1ccc(NC(=O)CSc2nnnn2-c2ccc(C(C)(C)C)cc2Cl)c(Cl)c1)OCC(=O)NCCO [Compound 4048]
[2]
  IC50: 26 nM

## CC(C)(C#Cc1ccc(NC(=O)CSc2nnnn2-c2cc(C(C)(C)C)ccc2Cl)c(Cl)c1)NC(=O)c1cc[n+]([O-])cc1 [Compound 4205]
[2]
  IC50: 28.5 nM

## CC(C)(C)c1ccc(-n2nnnc2SCC(=O)Nc2ccc(C(=O)NCCc3ccc(O)c(O)c3)cc2Cl)c(Cl)c1 [Compound 6020]
[1]
  IC50: 51 nM

## CC(C)(C#Cc1ccc(NC(=O)CSc2nnnn2-c2ccc(C3CC3)cc2Cl)c(Cl)c1F)OCCOc1ccc[n+]([O-])c1 [Compound 4215]
[2]
  IC50: 56.5 nM

## COC(=O)/C=C/c1ccc(NC(=O)CSc2nnnn2-c2ccc(C)cc2Cl)c(Cl)c1 [Compound 3005]
[1]
  IC50: 305 nM

## CC(C)(C#Cc1ccc(NC(=O)CSc2nnnn2-c2ccc(C3CC3)cc2Cl)c(Cl)c1)NC(=O)CNc1ccncc1 [Compound 4188]
[2]
  IC50: 24 nM

## CC(C)(C#Cc1ccc(NC(=O)CSc2nnc(C(F)(F)F)n2-c2ccc(C3CC3)cc2Cl)c(Cl)c1)C(=O)O [Compound 1017]
[1]
  IC50: 72 nM

## CC(C)(C)c1ccc(-n2nnnc2SCC(=O)Nc2ccc(OCC(=O)Nc3ccc(N4CCOCC4)cc3)cc2Cl)c(Cl)c1 [Compound 5005]
[1]
  IC50: 216 nM

## COC(=O)C=C(C)c1ccc(NC(=O)CSc2nnnn2-c2ccc(C3CC3)cc2Cl)c(Cl)c1 [Compound 3044]
[1]
  IC50: 58.5 nM

## CN(C)c1ccc(Cl)c(-n2nnnc2SCC(=O)Nc2ccc(C#CC(C)(C)C(=O)O)cc2Cl)c1 [Compound 4243]
[2]
  IC50: 140 nM

## O=C(CSc1nnnn1-c1ccc(C2CC2)cc1Cl)Nc1ccc(C(=O)NCc2cccc[n+]2[O-])cc1Cl [Compound 6038]
[1]
  IC50: 64.5 nM

## O=C(COc1ccc(NC(=O)CSc2nnnn2-c2ccc(C3CC3)cc2Cl)c(Cl)c1)NCCc1ccccn1 [Compound 5034]
[1]
  IC50: 357 nM

## CC(C)(C)c1ccc(-n2nnnc2SCC(=O)Nc2ccc(NC(=O)Cc3c(Cl)cccc3Cl)cc2Cl)c(Cl)c1 [Compound 7036]
[3]
  IC50: 712 nM

## CC(C)(C#Cc1ccc(NC(=O)CSc2nnnn2-c2ccc(C3CC3)cc2Cl)c(Cl)c1)NCC1CC1 [Compound 4128]
[2]
  IC50: 27 nM

## CC(C)(C#Cc1ccc(NC(=O)CSc2nnnn2-c2cc(C(F)(F)F)ccc2Cl)c(Cl)c1)OCCOc1ccncc1 [Compound 4168]
[2]
  IC50: 108 nM

## CC(C)(C#Cc1ccc(NC(=O)CSc2nnnn2-c2ccc(C3CC3)cc2Cl)c(Cl)c1)NC(=O)CN1CCN(CCn2cccc2)CC1 [Compound 4126]
[2]
  IC50: 78 nM

## CC(C)(C)c1ccc(-n2nnnc2SCC(=O)Nc2ccc(C(=O)Nc3ccccc3O)cc2Cl)c(Cl)c1 [Compound 6011]
[1]
  IC50: 26 nM

## CC(C)(C)c1ccc(-n2nnnc2SCC(=O)Nc2ccc(-c3ccc(OCCN4CC[C@H](O)C4)cc3)cc2Cl)c(Cl)c1 [Compound 2042]
[1]
  IC50: 15 nM

## CC(C)(C#Cc1ccc(NC(=O)CSc2nnnn2-c2cc(C(F)(F)F)cc(Cl)c2Cl)c(Cl)c1)NC(=O)c1cc[n+]([O-])cc1 [Compound 4210]
[2]
  IC50: 15.5 nM
